Among the data in patent EP0934745B1, “Use of androsterone derivatives for inhibiting DNA binding of ap-1 and airway smooth muscle proliferation” (CHARLOTTE-MECKLENBURG HOSPITAL doing business as Carolinas …, priority 1998, dated 1999) are inhibition values, retold here.

For this experiment, the target named is T1, glucose-6-phosphate dehydrogenase (G6PDH) (Rattus norvegicus, UniProt P05370).
T1 construct: endogenous in cells; host or cells: primary rat tracheal (airway) smooth muscle cells
As to the kind of experiment: G6PDH activity in airway smooth muscle cell lysates, inhibitors added to the lysate. The class given is biochemical. The settings on record: 100 µl, read-out: PERCENT INHIBITION OF GLUCOSE 6-PHOSPHATE DEHYDROGENASE ACTIVITY
As to the method: After 1 hour cells were lysed and G6PDH activity was assayed as described below. In other experiments, G6PDH activity was measured in cell lysates prepared from untreated confluent cultures and treated in vitro with DHEA or 16α-BrEA added to the reaction mixture in 5 µl DMSO. […] Ribonucleosides or deoxyribonucleosides were dissolved in 0.5 ml of 1 N HCl and added to DMEM. The pH of the medium was adjusted to 7.1 by titration with 1 N NaOH, and medium was then sterilized by passage through a […] filter. Growth was measured by MTT reduction after 24, 48 and 96 hours.
To determine if DHEA or its analogs induced programmed cell death, confluent cultures in 6 well plastic plates were treated with 50 or 250 µM DHEA, 10 or 50 µM 16α-BrEA, or vehicle (25 µl DMSO). After 2 hours cells were washed twice with DPBS and scraped on ice into 1.5 ml microfuge tubes and centrifuged 250 g for 5 minutes at 4°C. The cell pellet was gently resuspended in 30 µl DPBS and lysed by addition of 30 µl lysis buffer (80 mM EDTA, 1.6% [wt/vol] sodium lauryl sarcosinate and 5 mg/ml proteinase K in 200 mM Tris-HCl buffer, pH 8.0). Lysate was incubated at 50°C for 1.5 hours. RNAse A (0.2 mg/ml) was added and the lysate was incubated for another 30 minutes at 37°C. DNA bands were separated along with a DNA ladder standard on a 1% agarose gel at 60 V for 1 hour, intercalated with ethidium bromide, and visualized and photographed under ultraviolet light. Measurement of Glucose-6-Phosphate Dehydrogenase Activity. Cultures were washed three times with cold DPBS on ice, scraped into ice cold buffer (10 mM MgCl2 in 50 mM Tris, pH 8.0) and sonicated on ice. G6PDH activity was then assayed by the method of Jones and Andrews (Jones, J.T., and Andrews, S.G., "Glucose-6-phosphate dehydrogenase activity in somatic and germinal cells of the mouse testis," J. Reproduc. Fertility, 54, 357-362 (1978)) in a reaction mixture containing 50-200 µl cell lysate, 20 µl of 10 mM β-nicotinamide adenine dinucleotide phosphate (NADP) and 20 µl of 10 mM D-glucose-6-phosphate (G6P) in a total volume of 1 ml buffer (10 mM MgCl2 in 50 mM Tris, pH 8.0). The reaction was initiated by addition of G6P. The linear increase in absorbance at 340 nm was monitored at 25°C for 300 seconds. Activity was expressed as units/mg protein, where 1.0 unit will oxidase 1.0 µmole of G6P to 6-phospho-D-gluconate per min in the presence of NADP. Protein was measured using the BCA protein assay (Rockford, IL). Immunoblot Assay for p21^ras and c-fos Proteins. For measurement of p21^ras, cells were washed twice-with cold DPBS and swelled on ice for 15 minutes with 500 µl cold lysis buffer (10 mM HEPES, 1 mM MgCl2, 1 mM EDTA, 1 µM pepstatin, 2 µg/ml aprotinin, and 1 mM phenylmethylsulfonyl fluoride). See Schulz and Nyce (1991), supra. Cells were then scraped into 1.5 ml polypropylene tubes, homogenized and clarified by centrifugation at 3,000 g for 1 minute at 4°C. The postnuclear supernatant was centrifuged 100,000 g for 30 minutes at 4°C. Supernatants were collected and pelleted membranes were resuspended in detergent buffer (1% Triton X-100, 1% sodium deoxycholate, 0.1% SDS, 150 mM NaCl, 1 µM pepstatin, 2 µg/ml aprotinin and 1 mM phenylmethylsulfonyl fluoride in 25 mM Tris, pH 7.4). Aliquots of supernatant and membrane fractions were removed for protein determination using the BCA protein assay. […]
Activity is expressed as % inhibition of DMSO vehicle-treated controls by 16α-bromoepiandrosterone (BrEA) or dehydroepiandrosterone (DHEA). […]

T1 sequence (P05370 whole entry): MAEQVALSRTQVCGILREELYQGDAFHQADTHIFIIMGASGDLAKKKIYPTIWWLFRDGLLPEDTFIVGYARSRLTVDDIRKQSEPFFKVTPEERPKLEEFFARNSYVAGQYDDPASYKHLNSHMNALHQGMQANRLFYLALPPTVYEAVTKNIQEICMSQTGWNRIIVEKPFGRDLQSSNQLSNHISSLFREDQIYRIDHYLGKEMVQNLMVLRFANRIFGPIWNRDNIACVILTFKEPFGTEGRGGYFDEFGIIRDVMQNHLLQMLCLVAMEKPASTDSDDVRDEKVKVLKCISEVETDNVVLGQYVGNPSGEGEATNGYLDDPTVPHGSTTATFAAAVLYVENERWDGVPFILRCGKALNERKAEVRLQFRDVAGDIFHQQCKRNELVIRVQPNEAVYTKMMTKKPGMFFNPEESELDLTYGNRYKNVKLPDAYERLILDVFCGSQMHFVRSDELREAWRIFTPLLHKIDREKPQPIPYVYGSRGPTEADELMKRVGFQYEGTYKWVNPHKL

A word on the inhibition: it is the share of the control response that was lost under treatment. As for `C[C@]12CC[C@H](O)CC1=CC[C@@H]1[C@@H]2CC[C@]2(C)C(=O)CC[C@@H]12` [DHEA, dehydroepiandrosterone], the inhibition at 25 µM was 77 ± 3% and the inhibition at 50 µM turned out to be 82 ± 3%. In addition, for the setting “100 µM”, the inhibition at 100 µM was determined as 93 ± 3%.
`C[C@]12CC[C@H](O)C[C@@H]1CC[C@@H]1[C@@H]2CC[C@]2(C)C(=O)[C@H](Br)C[C@@H]12` [16α-BrEA, 16α-bromoepiandrosterone]: the inhibition at 25 µM amounted to 49% and the inhibition at 50 µM was found to be 71 ± 8%.
